Data: patent US20180110762A1, “Compositions Methods for Treating Chronic Kidney Disease” (Merck Sharp & Dohme Corp, priority 2015, published 2018)
Marks after values point to notes of the source that are not given here.

What was measured:
Assay type in all cases: in vivo
[1] = tested on: male obese ZSF1 rats (diabetic nephropathy model); assay: ZSF1 rat study: kidney collagen I and III immunostaining; details: obese ZSF1 rats, 10 mpk in-feed, week 28
Experimental: (§1) The effects of Compound A (“A”) on renal function, plasma triglycerides, plasma cholesterol, kidney collagen I, kidney collagen III, renal histology, glomerular filtration rate, fibrosis score, and mRNA gene expression (profibrotic genes and integrin β3) were evaluated in male obese ZSF1 rats (a hybrid F1 of Zucker diabetic fatty rat and spontaneously hypertensive heart failure rat; a diabetic nephropathy model) when administered as in-feed for 28 weeks. Sixty obese male ZSF1 rats were randomized to five groups: Obese control (n=12), Compound A 60 mpk (n=12), Compound A 200 mpk (n=12), Compound A 400 mpk (n=12), Enalapril 10 mpk (n=12); Eight lean male ZSF1 rats were used for normal control. Renal functional changes were monitored by blood and urine analysis following in-feed dosing for 28 weeks. Compound exposure was also monitored during the study.
Following deparaffinization and rehydration, each kidney tissue section was processed to identify collagen I and III deposition. The primary antibodies used were rabbit anti-type I collagen polyclonal antibody (Abcam, Cambridge, Mass.) diluted at 2 ug/ml, and rabbit anti-type III collagen polyclonal antibody (Lifespan, Seattle, Wash.) at 3 ug/ml. The signal was developed by using Super PicTure HRP Polymer Rabbit Primary kit (Invitrogen) and the slides were counterstained with hematoxylin. The Aperio ScanScope XT Slide Scanner (Aperio Technologies, Vista, Calif.) system was used to capture whole slide digital images with a 20× objective. Digital images were managed using Aperio Spectrum. The positive stains were identified and quantified using a macro created from a color deconvolution algorithm (Aperio Technologies, Vista, Calif.).

[2] = ZSF1 rat 28-week in-feed study: body weight, food and water intake; details: obese ZSF1 rats, 10 mpk in-feed
Experimental: as §1

[3] = tested on: male obese ZSF1 rats (diabetic nephropathy model); assay: ZSF1 rat study: renal fibrosis score (histology); details: obese ZSF1 rats, 10 mpk in-feed, week 28
Experimental: as §1
Upon completion of the study, animals were euthanized and blood and organs (kidney, heart, aorta, eyes, and lumber vertebrae (LV1-LV5) and left femur) were collected for histology assessment (including EM for the kidneys) or DEXA scan (lumber vertebrae and left femur). Kidney tissues were fixed in 10% formalin and then paraffin embedded. Tissue sections were stained with hematoxylin and eosin (H&E), periodic acid-Schiff (PAS), and Masson's trichrome and evaluated under light microscope. The severity of histopathologic changes in renal tubules, interstitium, vasculature, and glomeruli were graded on a 1 to 5 scale corresponding to minimal, mild, moderate, marked, and severe as described previously. Sections from both kidneys were examined. Collagen deposition in the kidney was graded on a 1 to 5 scale corresponding to minimal, mild, moderate, marked, and severe, based on the blue stained area size and intensity.

[4] = tested on: male obese ZSF1 rats (diabetic nephropathy model); assay: ZSF1 rat study: GFR measurement by FITC-sinistrin clearance; details: obese ZSF1 rats, 10 mpk in-feed, week 28
Experimental: as §1
For the measurement of GFR, a miniaturized device (NIC-Kidney, Mannheim Pharma & Diagnostics, Mannheim, Germany) was used. In brief, the device (batteries, diodes, and microprocessor) containing an optical component was affixed on a depilated region of the back using a double-sided sticky patch (Lohmann GmbH KG, 56567, Neuwied, Germany) under isofluorane anesthesia (3% isoflurane mixed with oxygen). After a resting baseline period of 1-1.5 minutes, a bolus of FITC-sinistrin (5 mg/100 g body weight, dissolved in 0.5 mL sterile isotonic saline) was injected through the tail vein. The rat was then placed in a clean cage for recovery from anesthesia to responsible ambulation. […] The excretion kinetics of FITC-sinistrin was determined using a sampling rate of 60 measurements per minute with an excitation time of 10 milliseconds per measurement for 120 minutes after the injection. One compartment model was used for FITC-sinistrin clearance. After completion of GFR measurement, the device was gently removed from the skin and the rat returned to its home cage.

[5] = tested on: male obese ZSF1 rats (diabetic nephropathy model); assay: ZSF1 rat 28-week in-feed study: urinary protein (UPCR, 24 h excretion); details: obese ZSF1 rats, 10 mpk in-feed
Experimental: as §1

[6] = tested on: male obese ZSF1 rats (diabetic nephropathy model); assay: ZSF1 rat study: plasma triglyceride and cholesterol; details: obese ZSF1 rats, 10 mpk in-feed; for plasma cholesterol levels: in mg/dL (unit assumed)
Experimental: as §1

[7] = tested on: male obese ZSF1 rats (diabetic nephropathy model); assay: ZSF1 rat study: kidney mRNA expression of profibrotic genes and integrin beta3; details: obese ZSF1 rats, 10 mpk in-feed, week 28
Experimental: as §1

CCOC(=O)[C@H](CCc1ccccc1)N[C@@H](C)C(=O)N1CCC[C@H]1C(=O)O [Enalapril, reference compound]
kidney collagen I protein levels [1]: 34.83 ± 0.71 % of area
kidney collagen III protein levels [1]: 19.19 ± 0.90 % of area
Body Weight ([2]; week 1): 570.2 ± 10.3 grams
Food Intake ([2]; week 1): 30.1 ± 1.3 grams/24 h
Water Intake ([2]; week 1): 50.2 ± 6.2 mls/24 h
Body Weight ([2]; week 2): 578.3 ± 11.2 grams
Food Intake ([2]; week 2): 31.7 ± 1.4 grams/24 h
Water Intake ([2]; week 2): 55.0 ± 5.2 mls/24 h
Body Weight ([2]; week 4): 585.7 ± 11.1 grams
Food Intake ([2]; week 4): 33.1 ± 1.0 grams/24 h
Water Intake ([2]; week 4): 56.6 ± 6.0 mls/24 h
Body Weight ([2]; week 6): 606.1 ± 11.6 grams
Food Intake ([2]; week 6): 33.1 ± 1.0 grams/24 h
Water Intake ([2]; week 6): 61.7 ± 5.5 mls/24 h
Body Weight ([2]; week 8): 623.8 ± 13.3 grams
Food Intake ([2]; week 8): 35.1 ± 1.5 grams/24 h
Water Intake ([2]; week 8): 85.4 ± 7.4 mls/24 h
Body Weight ([2]; week 10): 637.2 ± 14.1 grams
Body Weight ([2]; week 12): 655.6 ± 14.2 grams
Food Intake ([2]; week 12): 36.6 ± 1.5 grams/24 h
Water Intake ([2]; week 12): 91.7 ± 7.5 mls/24 h
Body Weight ([2]; week 14): 658.1 ± 16.2 grams
Body Weight ([2]; week 16): 671.1 ± 16.8 grams
Food Intake ([2]; week 16): 33.3 ± 1.6 grams/24 h
Water Intake ([2]; week 16): 83.3 ± 8.3 mls/24 h
Body Weight ([2]; week 18): 682.1 ± 16.4 grams
Body Weight ([2]; week 21): 709.5 ± 18.0 grams
Food Intake ([2]; week 21): 37.7 ± 1.6 grams/24 h
Water Intake ([2]; week 21): 75.8 ± 5.9 mls/24 h
Body Weight ([2]; week 24): 733.7 ± 20.2 grams
Food Intake ([2]; week 24): 35.5 ± 1.3 grams/24 h
Water Intake ([2]; week 24): 89.7 ± 7.9 mls/24 h
Body Weight ([2]; week 28): 753.7 ± 21.8 grams
Food Intake ([2]; week 28): 33.6 ± 1.5 grams/24 h
Water Intake ([2]; week 28): 68.0 ± 6.5 mls/24 h
Body Weight ([2]; week −2): 522.2 ± 10.2 grams
Food Intake ([2]; week −2): 37.5 ± 1.5 grams/24 h
Water Intake ([2]; week −2): 68.1 ± 4.9 mls/24 h
renal fibrosis score (expressed as 0-5) [3]: 2.0 ± 0.1
FITC-sinistrin clearance, % change of improvement compared to Obese Vehicle group [4]: 59.6%****
Glomerular Filtration Rate [4]: 971.9 ± 53.3 uLs/Min/100 gm BW
24 h Urinary Protein Excretion ([5]; week 1): 73.9 ± 3.8 mg/24 h
UPCR (urinary protein/creatinine ratio) ([5]; week 1): 6.3 ± 0.3 mg/mg
24 h Urinary Protein Excretion ([5]; week 2): 91.2 ± 4.9 mg/24 h
UPCR (urinary protein/creatinine ratio) ([5]; week 2): 7.4 ± 0.4 mg/mg
24 h Urinary Protein Excretion ([5]; week 4): 96.1 ± 5.1 mg/24 h
UPCR (urinary protein/creatinine ratio) ([5]; week 4): 8.0 ± 0.4 mg/mg
24 h Urinary Protein Excretion ([5]; week 6): 92.2 ± 6.0 mg/24 h
UPCR (urinary protein/creatinine ratio) ([5]; week 6): 7.3 ± 0.4 mg/mg
24 h Urinary Protein Excretion ([5]; week 8): 135.3 ± 10.2 mg/24 h
UPCR (urinary protein/creatinine ratio) ([5]; week 8): 10.2 ± 0.6 mg/mg
24 h Urinary Protein Excretion ([5]; week 12): 234.8 ± 16.4 mg/24 h
UPCR (urinary protein/creatinine ratio) ([5]; week 12): 17.1 ± 0.9 mg/mg
24 h Urinary Protein Excretion ([5]; week 16): 252.2 ± 21.1 mg/24 h
UPCR (urinary protein/creatinine ratio) ([5]; week 16): 14.0 ± 0.7 mg/mg
24 h Urinary Protein Excretion ([5]; week 21): 274.5 ± 16.8 mg/24 h
UPCR (urinary protein/creatinine ratio) ([5]; week 21): 15.6 ± 0.6 mg/mg
24 h Urinary Protein Excretion ([5]; week 24): 289.4 ± 16.5 mg/24 h
UPCR (urinary protein/creatinine ratio) ([5]; week 24): 16.6 ± 0.8 mg/mg
24 h Urinary Protein Excretion ([5]; week 28): 309.6 ± 15.8 mg/24 h
UPCR (urinary protein/creatinine ratio) ([5]; week 28): 19.5 ± 0.8 mg/mg
24 h Urinary Protein Excretion ([5]; week −2): 132.9 ± 9.9 mg/24 h
UPCR (urinary protein/creatinine ratio) ([5]; week −2): 10.8 ± 0.8 mg/mg
Plasma Triglyceride ([6]; week 2): 2979.8 ± 161.7 mg/dL
plasma cholesterol levels ([6]; week 2): 220.9 ± 5.9
Plasma Triglyceride ([6]; week 4): 3212.4 ± 137.6 mg/dL
plasma cholesterol levels ([6]; week 4): 251.1 ± 7.4
Plasma Triglyceride ([6]; week 6): 2866.6 ± 145.5 mg/dL
plasma cholesterol levels ([6]; week 6): 232.5 ± 6.0
Plasma Triglyceride ([6]; week 8): 3770.3 ± 280.6 mg/dL
plasma cholesterol levels ([6]; week 8): 294.3 ± 6.7
Plasma Triglyceride ([6]; week 12): 3298.3 ± 221.4 mg/dL
plasma cholesterol levels ([6]; week 12): 290.2 ± 7.6
Plasma Triglyceride ([6]; week 16): 3554.6 ± 186.3 mg/dL
plasma cholesterol levels ([6]; week 16): 319.3 ± 9.9
Plasma Triglyceride ([6]; week 21): 3224.3 ± 240.5 mg/dL
plasma cholesterol levels ([6]; week 21): 321.1 ± 11.3
Plasma Triglyceride ([6]; week 24): 3180.2 ± 204.5 mg/dL
plasma cholesterol levels ([6]; week 24): 354.3 ± 12.5
Plasma Triglyceride ([6]; week 28): 2855.1 ± 291.3 mg/dL
plasma cholesterol levels ([6]; week 28): 368.8 ± 13.2
Plasma Triglyceride ([6]; week −2): 2023.9 ± 82.1 mg/dL
plasma cholesterol levels ([6]; week −2): 187.1 ± 5.4
Collagen I (a1) expression in the kidney [7]: 0.54 ± 0.02
Collagen III (a1) expression in the kidney [7]: 0.39 ± 0.02
Integrin beta3 expression in the kidney [7]: 0.68 ± 0.03
PAI-1 expression in the kidney [7]: 0.52 ± 0.04
